ChEMBL document CHEMBL4152332, “Discovery and synthesis of novel magnolol derivatives with potent anticancer activity in non-small cell lung cancer” (Eur J Med Chem, 2018)

Tests used:
[1] = tested on: HCC827; assay: Antiproliferative activity against human HCC827 cells after 72 hrs by MTT assay; assay type: functional, cell-based; details: HCC827, 72 h
[2] = tested on: NCI-H1975; assay: Antiproliferative activity against human NCI-H1975 cells after 72 hrs by MTT assay; assay type: functional, cell-based; details: NCI-H1975, 72 h
[3] = tested on: NCI-H460; assay: Antiproliferative activity against human H460 cells after 72 hrs by MTT assay; assay type: functional, cell-based; details: NCI-H460, 72 h
[4] = Apparent aqueous solubility of the compound by HPLC analysis; assay type: physicochemical; details: aqueous solution

| Structure (SMILES) | IC50 [1] [µM] | IC50 [2] [µM] | IC50 [3] [µM] | solubility [4] [µg/mL] |
| --- | --- | --- | --- | --- |
| C=CCc1ccc(O)c(-c2cc(CC=C)cc(CN3CCCC(C(=O)OCC)C3)c2O)c1 (centres undefined) | > 20 | > 20 | > 20 |  |
| C=CCc1cc(-c2cc(C(=O)O)ccc2O)ccc1O | > 40 | > 40 | > 40 |  |
| C=CCc1ccc(O)c(-c2cc(O)ccc2O)c1 [RANDAIOL] | > 40 | > 40 | > 40 |  |
| C=CCc1ccc(O)c(-c2cc(CC=C)cc(CN3CCN(CCCO)CC3)c2O)c1 | > 20 | > 20 | > 20 |  |
| C=CCc1ccc(O)c(-c2cc(CC=C)cc(CN3CCN(C(=O)OCC)CC3)c2O)c1 | > 20 | > 20 | > 20 |  |
| OCC(O)Cc1ccc(O)c(-c2cc(CC(O)CO)ccc2O)c1 (centres undefined) | > 40 | > 40 | > 40 |  |
| C=CCc1ccc(O)c(-c2cc(CC=C)cc(CN3CCC(CNC(=O)OC(C)(C)C)CC3)c2O)c1 | > 20 | > 20 | > 20 |  |
| C=CCc1ccc(O)c(-c2cc(C(=O)O)ccc2O)c1 | > 40 | > 40 | > 40 |  |
| C=CCc1ccc(O)c(-c2ccc(O)c(CC3CO3)c2)c1 (centres undefined) | > 40 | > 40 | > 40 |  |
| C=CCc1ccc(O)c(-c2cc(CC=C)cc(CN3CCN(CCCC)CC3)c2O)c1 | > 20 | > 20 | > 20 |  |
| C=CCc1ccc(O)c(-c2cc(CC=C)cc(CN3CCN(C(=O)N(C)C)CC3)c2O)c1 | > 20 | > 20 | > 20 |  |
| C=CCc1ccc(O)c(-c2cc(CC=C)cc(CN3CCCC(NC(=O)OC(C)(C)C)C3)c2O)c1 (centres undefined) | 15.5 | 13.9 | 16.4 |  |
| C=CCc1cc(-c2cc(O)ccc2O)ccc1O [MAGNATRIOL B] | > 40 | > 40 | > 40 |  |
| C=CCc1ccc(O)c(-c2cc(CC=C)cc(CN3CCC(NC(=O)C=C)CC3)c2O)c1 | > 20 | > 20 | > 20 |  |
| C=CCc1cc(-c2cc(CC=C)cc([C@@H]3C=C(C)CC[C@H]3C(C)C)c2O)c(O)c([C@@H]2C=C(C)CC[C@H]2C(C)C)c1 | > 40 | > 40 | > 40 |  |
| C=CCc1cc(-c2cc(/C=C/CO)ccc2O)c(O)c([C@@H]2C=C(C)CC[C@H]2C(C)C)c1 | > 40 | > 40 | > 40 |  |

| Structure (SMILES) | IC50 [1] [µM] | IC50 [2] [µM] | IC50 [3] [µM] | solubility [4] [µg/mL] |
| --- | --- | --- | --- | --- |
| C=CCc1cc(-c2cc(/C=C/CO)ccc2O)ccc1O | 33.6 | 34.5 | 31.6 |  |
| C=CCc1cc(-c2cc(C=O)ccc2O)ccc1O [MAGNALEDEHYDE E] | > 40 | > 40 | > 40 |  |
| C=CCc1cc(-c2ccc(O)c(CC=C)c2)c(O)c([C@@H]2C=C(C)CC[C@H]2C(C)C)c1 | 31.4 | 26.7 | 27.6 |  |
| C=CCc1ccc(O)c(-c2cc(CC=C)cc(CN3CCCC(NC(=O)C=C)C3)c2O)c1 (centres undefined) | > 20 | > 20 | > 20 |  |
| C=CCc1cc(-c2cc(CC(O)CO)ccc2O)ccc1O (centres undefined) [MAGNOLIGNAN] | > 40 | > 40 | > 40 |  |
| C=CCc1cc(-c2cc(/C=C/C=O)ccc2O)ccc1O [MAGNALEDEHYDE B] | 35.5 | 34.1 | 32.4 |  |
| C=CCc1ccc(O)c(-c2cc(CC=C)cc(CN3CCC(NC(=O)OC(C)(C)C)CC3)c2O)c1 | 12.9 | 15.8 | 17.5 |  |
| C=CCc1ccc(O)c(-c2cc(CC=C)cc(CN3CCN(C(=O)OC(C)(C)C)CC3)c2O)c1 | > 20 | > 20 | > 20 |  |
| C=CCc1ccc(O)c(-c2cc(CC=C)cc([C@@H]3C=C(C)CC[C@H]3C(C)C)c2O)c1 | 15.8 | 16.6 | 18.6 | < 10 |
| C=CCc1ccc(O)c(-c2ccc(O)c(/C=C/C)c2)c1 | 26.4 | 25.8 | 25.3 |  |
| C=CCc1ccc(O)c(-c2cc(/C=C/CO)ccc2O)c1 | > 40 | > 40 | > 40 |  |
| C=CCc1ccc(O)c(-c2cc(CC=C)cc(CN3CCN(Cc4ccccc4)CC3)c2O)c1 | > 20 | > 20 | > 20 |  |
| C=CCc1ccc(O)c(-c2cc(CC(O)CO)ccc2O)c1 (centres undefined) | > 40 | > 40 | > 40 |  |
| C=CCc1ccc(O)c(-c2cc(CC=C)cc(CN3CCN(c4ccccc4)CC3)c2O)c1 | > 20 | > 20 | > 20 |  |
| C=CCc1ccc(O)c(-c2ccc(O)c(CC(O)CO)c2)c1 (centres undefined) | > 40 | > 40 | > 40 |  |
| C=CCc1ccc(O)c(-c2cc(CC=C)cc(CN3CCC(C(=O)OCC)CC3)c2O)c1 | > 20 | > 20 | > 20 |  |

Next, values leading:

| IC50 [1] [µM] | IC50 [2] [µM] | IC50 [3] [µM] | solubility [4] [µg/mL] | Structure (SMILES) |
| --- | --- | --- | --- | --- |
| 18.9 | 16.5 | 17.4 |  | C=CCc1ccc(O)c(-c2cc(CC=C)cc(CN3CCN(CCO)CC3)c2O)c1 |
| > 20 | > 20 | > 20 |  | C=CCc1ccc(O)c(-c2cc(CC=C)cc(CN3CCNCC3)c2O)c1 |
| > 20 | > 20 | > 20 |  | C=CCc1ccc(O)c(-c2cc(CC=C)cc(CN3CCC(CN)CC3)c2O)c1 |
| > 20 | > 20 | > 20 |  | C=CCc1ccc(O)c(-c2cc(CC=C)cc(CN3CCCC(C)C3)c2O)c1 (centres undefined) |
| > 20 | > 20 | > 20 |  | C=CCc1ccc(O)c(-c2cc(CC=C)cc(CN3CCN(C(=O)C4CC4)CC3)c2O)c1 |
| > 20 | > 20 | > 20 |  | C=CCc1ccc(O)c(-c2cc(CC=C)cc(CN3CCOCC3)c2O)c1 |
| > 20 | > 20 | > 20 |  | C=CCc1ccc(O)c(-c2cc(CC=C)cc(CN3CCN(CC=C)CC3)c2O)c1 |
| > 20 | > 20 | > 20 |  | C=CCc1ccc(O)c(-c2cc(CC=C)cc(CN3CCCCC3)c2O)c1 |
| > 20 | > 20 | > 20 |  | C=CCc1ccc(O)c(-c2cc(CC=C)cc(CN3CCN(C(C)C)CC3)c2O)c1 |
| > 20 | > 20 | > 20 |  | C=CCc1ccc(O)c(-c2cc(CC=C)cc(CN3CCN(C(C)=O)CC3)c2O)c1 |
| > 20 | > 20 | > 20 |  | C=CCc1ccc(O)c(-c2cc(CC=C)cc(CN3CCCC(CO)C3)c2O)c1 (centres undefined) |
| > 20 | > 20 | > 20 |  | C=CCc1ccc(O)c(-c2cc(CC=C)cc(CN3CCN(C=O)CC3)c2O)c1 |
| > 20 | > 20 | > 20 |  | C=CCc1ccc(O)c(-c2cc(CC=C)cc(CN3CCSCC3)c2O)c1 |
| > 20 | > 20 | > 20 |  | C=CCc1ccc(O)c(-c2cc(CC=C)cc(CN3CCN(C)CC3)c2O)c1 |
